Measurements reported in PMC9970836 (Biomolecules & Therapeutics, 2022).

These compounds were tested against 5-HT2AR (Homo sapiens, UniProt P28223) (assay: 5-HT2AR radioligand binding assay).
Chain of 5-HT2AR (P28223 whole entry): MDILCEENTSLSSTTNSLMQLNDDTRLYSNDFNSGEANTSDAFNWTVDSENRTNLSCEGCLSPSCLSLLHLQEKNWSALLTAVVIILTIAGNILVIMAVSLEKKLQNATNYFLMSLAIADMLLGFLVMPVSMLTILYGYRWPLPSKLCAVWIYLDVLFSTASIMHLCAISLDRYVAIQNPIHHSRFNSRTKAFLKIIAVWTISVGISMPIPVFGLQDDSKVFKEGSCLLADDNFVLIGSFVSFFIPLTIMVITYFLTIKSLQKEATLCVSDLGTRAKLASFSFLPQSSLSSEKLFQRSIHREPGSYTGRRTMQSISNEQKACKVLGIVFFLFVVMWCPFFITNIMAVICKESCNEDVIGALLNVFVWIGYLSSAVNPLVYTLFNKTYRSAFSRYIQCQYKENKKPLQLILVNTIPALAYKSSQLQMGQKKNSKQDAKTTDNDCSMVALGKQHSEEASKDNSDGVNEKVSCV

First: CCCN(CC)CCc1c[nH]c2ccc(OC)cc12 [Compd 20, 5-methoxy -N-ethyl-N-propyl tryptamine]
Second: C=CCN(CC=C)CCc1c[nH]c2ccc(OC)cc12 [Compd 25, N-allyl-N-[2-(5-methoxy-1H-indol-3-yl)ethyl] prop-2-en-1-amine]
The Ki of the first is 2.1-fold lower: 122 nM for the first, 258 nM for the second.

First: CCCc1cc(OC)c(CCN)cc1OC [Compd 1, 2,5-dimethoxy-4-propyl-benzeneethanamine]
Second: COc1cc([N+](=O)[O-])c(OC)cc1CCN [Compd 2, 2,5-Dimethoxy-4-nitrophenethylamine]
The Ki of the first is 7.3-fold lower: 3.47 nM for the first, 25.2 nM for the second. The first binds more tightly here.

Going from `CCN(CC)CCc1c[nH]c2cccc(OC(C)=O)c12` [Compd 18, 4-Acetoxy-N,N-diethyltryptamine] to `CCc1cc(OC)c(CCNCc2ccccc2OC)cc1OC` [Compd 7, 2-(4-ethyl-2,5-dimethoxyphenyl)-N-(2-methoxybenzyl)ethan-1-amine], the Ki falls from 595 nM to 1.52 nM (390-fold).

First: COc1cc(CCNCc2ccccc2OC)c(OC)cc1Cl [Compd 8, 2-(4-chloro-2,5-dimethoxyphenyl)-N-(2-methoxybenzyl)ethanamine]
Second: COc1cc(CCNCc2ccccc2OC)c(OC)cc1C [Compd 6, 2-(2,5-dimethoxy-4-methylphenyl)-N-(2-methoxybenzyl)ethanamine]
The Ki of the first is 3.5-fold lower: 0.817 nM for the first, 2.88 nM for the second.

First: COc1cc(CCNCc2ccccc2F)c(OC)cc1Br [Compd 12, 4-bromo-N-[(2-fluorophenyl)methyl]-2,5-dimethoxy-benzeneethanamine]
Second: COc1cc(CCNCc2ccccc2F)c(OC)cc1Cl [Compd 11, 4-chloro-N-[(2-fluorophenyl)methyl]-2,5-dimethoxy-benzeneethanamine]
The Ki of the first is 3-fold lower: 3.63 nM for the first, 10.8 nM for the second.
